Laboratory results as given in patent US9682083B2, “Pyrrolo[2,3-D]pyrimidine derivatives, process for their preparation and their use as kinase inhibitors” (NERVIANO MEDICAL SCIENCES S.R.L., priority 2013, dated 2017).

Tests used:
Format in all cases: cell-based
[1] = system: A2780 ovarian carcinoma; assay: In vitro cell proliferation assay (CellTiterGlo), A2780 control line; conditions: Homo sapiens, antiproliferative activity, 72 hours exposure, non RET-dependent control cell line
Description: (§1) In Vitro Cell Proliferation Assay
(§2) To evaluate the antiproliferative activity of a compound of formula (I) the following human cell lines were used: A2780 ovarian carcinoma; TT and MZ-CRC-1 medullary thyroid carcinoma, harboring a mutated RET-C634W and RET-M918T receptor respectively; LC-2/ad human lung adenocarcinoma, harboring the CCDC6-RET fusion protein. Exponentially growing cells were seeded and incubated at 37° C. in a humidified 5% CO2 atmosphere using appropriate medium supplemented with 10% Fetal Bovine Serum. 24 hours following cell plating, scalar doses of the compounds dissolved in 0.1% DMSO were added to the medium and cells were exposed to drugs for either 72 hours (A2780) or 144 hours (TT, MZ-CRC-1 and LC-2/ad), according to their different proliferation rate. At the end of treatment, cell proliferation was determined by an intracellular ATP monitoring system (CellTiterGlo—Promega), following manufacturer's instructions, and using an Envision instrument (PerkinElmer) as reader. Data obtained from compound versus vehicle treated cells were compared using Assay Explorer (Symyx Technologies Inc) software. IC50 values were calculated using sigmoidal interpolation curve fitting.
(§3) In the following Table A the antiproliferative activity of representative compounds of formula (I) on two medullary thyroid carcinoma cell lines expressing the aforementioned mutated forms of RET (TT and MZ-CRC-1) and on one lung adenocarcinoma cell line harboring the aforementioned fusion form of RET (LC-2/ad) is reported. As control, the antiproliferative activity of the same compounds on an unrelated non RET-dependent cell line (A2780) is reported. All these compounds show remarkable activity on RET-driven cellular models with respect to the unrelated ones.

[2] = system: TT medullary thyroid carcinoma, harboring a mutated RET-C634W receptor; assay: In vitro cell proliferation assay (CellTiterGlo), TT; conditions: Homo sapiens, antiproliferative activity, 144 h exposure
Description: as §1, §2, §3

[3] = system: LC-2/ad human lung adenocarcinoma, harboring the CCDC6-RET fusion protein; assay: In vitro cell proliferation assay (CellTiterGlo), LC-2/ad; conditions: antiproliferative activity, 144 h exposure
Description: as §1, §2, §3

[4] = system: MZ-CRC-1 medullary thyroid carcinoma, harboring a mutated RET-M918T receptor; assay: In vitro cell proliferation assay (CellTiterGlo), MZ-CRC-1; conditions: Homo sapiens, antiproliferative activity, 144 h exposure
Description: as §1, §2, §3

| IC50 [1] | IC50 [2] | IC50 [3] | IC50 [4] | Compound |
| --- | --- | --- | --- | --- |
| 6900 nM | 0.865 µM | – | – | Nc1ncnc2[nH]cc(C#Cc3cccc(NC(=O)c4ccccc4)c3)c12 [cmpd 9, N-{3-[(4-amino-7H-pyrrolo[2,3-d]pyrimidin-5-yl)ethynyl]phenyl}benzamide] |
| 601 nM | 0.249 µM | – | – | Nc1ncnc2[nH]cc(C#Cc3cccc(NC(=O)Cc4cccc(C(F)(F)F)c4)c3)c12 [cmpd 11, N-[3-(4-Amino-7H-pyrrolo[2,3-d]pyrimidin-5-ylethynyl)-phenyl]-2-(3-trifluoromethyl-phenyl)-acetamide] |
| 695 nM | 0.012 µM | 0.111 µM | 0.222 µM | CCN1CCN(Cc2ccc(NC(=O)Cc3cccc(C#Cc4c[nH]c5ncnc(N)c45)c3)cc2C(F)(F)F)CC1 [cmpd 12, 2-[3-(4-Amino-7H-pyrrolo[2,3-d]pyrimidin-5-ylethynyl)-phenyl]-N-[4-(4-ethyl-piperazin-1-ylmethyl)-3-trifluoromethyl-phenyl]-acetamide] |
| 4360 nM | 0.192 µM | – | – | Nc1ncnc2[nH]cc(C#Cc3cccc(C(=O)NC4CC4)c3)c12 [cmpd 15, 3-[(4-amino-7H-pyrrolo[2,3-d]pyrimidin-5-yl)ethynyl]-N-cyclopropylbenzamide] |
| 137 nM | 0.003 µM | 0.066 µM | 0.024 µM | Nc1ncnc2[nH]cc(C#Cc3cccc(NC(=O)c4cccc(C(F)(F)F)c4)c3)c12 [cmpd 24, N-{3-[(4-amino-7H-pyrrolo[2,3-d]pyrimidin-5-yl)ethynyl]phenyl}-3-(trifluoromethyl)benzamide] |
| 3670 nM | 0.14 µM | 0.49 µM | – | Nc1ncnc2[nH]cc(C#Cc3cccc(NC(=O)c4cccc(F)c4)c3)c12 [cmpd 26, N-{3-[(4-amino-7H-pyrrolo[2,3-d]pyrimidin-5-yl)ethynyl]phenyl}-3-fluorobenzamide] |
| 4450 nM | 0.111 µM | – | – | Cc1ccc(C(=O)Nc2cccc(C#Cc3c[nH]c4ncnc(N)c34)c2)cc1 [cmpd 31, N-{3-[(4-amino-7H-pyrrolo[2,3-d]pyrimidin-5-yl)ethynyl]phenyl}-4-methylbenzamide] |
| 1730 nM | 0.053 µM | 0.058 µM | 0.166 µM | Nc1ncnc2c1c(C#Cc1cccc(C(=O)NC3CC3)c1)cn2CC(F)(F)F [cmpd 36, 3-{[4-amino-7-(2,2,2-trifluoroethyl)-7H-pyrrolo[2,3-d]pyrimidin-5-yl]ethynyl}-N-cyclopropylbenzamide] |
| 6790 nM | 0.109 µM | 0.115 µM | 0.271 µM | Nc1ncnc2c1c(C#Cc1cccc(C(=O)NC3CC3)c1)cn2CCO [cmpd 37, 3-{[4-amino-7-(2-hydroxyethyl)-7H-pyrrolo[2,3-d]pyrimidin-5-yl]ethynyl}-N-cyclopropylbenzamide] |
| 1930 nM | 0.022 µM | 0.033 µM | 0.049 µM | CC(C)n1cc(C#Cc2cccc(C(=O)NC3CC3)c2)c2c(N)ncnc21 [cmpd 40, 3-{[4-amino-7-(propan-2-yl)-7H-pyrrolo[2,3-d]pyrimidin-5-yl]ethynyl}-N-cyclopropylbenzamide] |
| 4320 nM | 0.023 µM | 0.02 µM | – | CN1CCC(n2cc(C#Cc3cccc(C(=O)NC4CC4)c3)c3c(N)ncnc32)CC1 [cmpd 46, 3-{[4-amino-7-(1-methylpiperidin-4-yl)-7H-pyrrolo[2,3-d]pyrimidin-5-yl]ethynyl}-N-cyclopropylbenzamide] |
| 1590 nM | 0.016 µM | 0.019 µM | – | Cc1ccc(C(=O)NC2CC2)cc1C#Cc1cn(C(C)C)c2ncnc(N)c12 [cmpd 51, 3-{[4-amino-7-(propan-2-yl)-7H-pyrrolo[2,3-d]pyrimidin-5-yl]ethynyl}-N-cyclopropyl-4-methylbenzamide] |
| 3910 nM | 0.1 µM | 0.107 µM | 0.201 µM | Cc1ccc(C(=O)NC2CC2)cc1C#Cc1cn(CC(F)(F)F)c2ncnc(N)c12 [cmpd 52, 3-{[4-amino-7-(2,2,2-trifluoroethyl)-7H-pyrrolo[2,3-d]pyrimidin-5-yl]ethynyl}-N-cyclopropyl-4-methylbenzamide] |
| 837 nM | 0.01 µM | 0.009 µM | – | CC(C)n1cc(C#Cc2cc(C(=O)NC3CC3)ccc2F)c2c(N)ncnc21 [cmpd 53, 3-{[4-amino-7-(propan-2-yl)-7H-pyrrolo[2,3-d]pyrimidin-5-yl]ethynyl}-N-cyclopropyl-4-fluorobenzamide] |
| 3290 nM | 0.02 µM | 0.053 µM | 0.068 µM | Nc1ncnc2c1c(C#Cc1cc(C(=O)NC3CC3)ccc1F)cn2CC(F)(F)F [cmpd 54, 3-{[4-amino-7-(2,2,2-trifluoroethyl)-7H-pyrrolo[2,3-d]pyrimidin-5-yl]ethynyl}-N-cyclopropyl-4-fluorobenzamide] |
| 539 nM | 0.004 µM | 0.004 µM | – | CC(C)n1cc(C#Cc2cc(F)cc(C(=O)NC3CC3)c2)c2c(N)ncnc21 [cmpd 58, 3-{[4-amino-7-(propan-2-yl)-7H-pyrrolo[2,3-d]pyrimidin-5-yl]ethynyl}-N-cyclopropyl-5-fluorobenzamide] |
| 7180 nM | 0.043 µM | 0.021 µM | – | Nc1ncnc2c1c(C#Cc1cccc(C(=O)NC3CC3)c1)cn2-c1cccnc1 [cmpd 68, 3-{[4-amino-7-(pyridin-3-yl)-7H-pyrrolo[2,3-d]pyrimidin-5-yl]ethynyl}-N-cyclopropylbenzamide] |
| > 10000 nM | 0.213 µM | 0.213 µM | – | COc1cccc(-n2cc(C#Cc3cccc(C(=O)NC4CC4)c3)c3c(N)ncnc32)c1 [cmpd 70, 3-{[4-amino-7-(3-methoxyphenyl)-7H-pyrrolo[2,3-d]pyrimidin-5-yl]ethynyl}-N-cyclopropylbenzamide] |
| 46 nM | 0.001 µM | 0.004 µM | – | CCN1CCN(Cc2ccc(NC(=O)c3cccc(C#Cc4cn(C(C)C)c5ncnc(N)c45)c3)cc2C(F)(F)F)CC1 [cmpd 82, 3-{[4-amino-7-(propan-2-yl)-7H-pyrrolo[2,3-d]pyrimidin-5-yl]ethynyl}-N-{4-[(4-ethylpiperazin-1-yl)methyl]-3-(trifluoromethyl)phenyl}benzamide] |
| 1600 nM | 0.03 µM | 0.024 µM | – | CCC(C)n1cc(C#Cc2cccc(C(=O)NC3CC3)c2)c2c(N)ncnc21 (stereo not drawn) [cmpd 85, 3-{[4-amino-7-(butan-2-yl)-7H-pyrrolo[2,3-d]pyrimidin-5-yl]ethynyl}-N-cyclopropylbenzamide] |
| 1910 nM | 0.025 µM | 0.018 µM | – | Nc1ncnc2c1c(C#Cc1cccc(C(=O)NC3CC3)c1)cn2CCF [cmpd 86, 3-{[4-amino-7-(2-fluoroethyl)-7H-pyrrolo[2,3-d]pyrimidin-5-yl]ethynyl}-N-cyclopropylbenzamide] |
| 1520 nM | 0.019 µM | 0.012 µM | – | CCn1c(C)c(C#Cc2cccc(C(=O)NC3CC3)c2)c2c(N)ncnc21 [cmpd 87, 3-[(4-amino-7-ethyl-6-methyl-7H-pyrrolo[2,3-d]pyrimidin-5-yl)ethynyl]-N-cyclopropylbenzamide] |
| 1520 nM | 0.052 µM | 0.048 µM | – | CC1(Cn2cc(C#Cc3cccc(C(=O)NC4CC4)c3)c3c(N)ncnc32)COC1 [cmpd 88, 3-({4-amino-7-[(3-methyloxetan-3-yl)methyl]-7H-pyrrolo[2,3-d]pyrimidin-5-yl}ethynyl)-N-cyclopropylbenzamide] |
| 6690 nM | 0.136 µM | 0.127 µM | – | CN1CCC(n2cc(C#Cc3cccc(C(=O)NC4CC4)c3)c3c(N)ncnc32)C1 (stereo not drawn) [cmpd 89, 3-{[4-amino-7-(1-methylpyrrolidin-3-yl)-7H-pyrrolo[2,3-d]pyrimidin-5-yl]ethynyl}-N-cyclopropylbenzamide] |
| 2450 nM | 0.06 µM | 0.032 µM | – | Nc1ncnc2c1c(C#Cc1cccc(C(=O)NC3CC3)c1)cn2CC1CCC1 [cmpd 95, 3-{[4-amino-7-(cyclobutylmethyl)-7H-pyrrolo[2,3-d]pyrimidin-5-yl]ethynyl}-N-cyclopropylbenzamide] |
| 1800 nM | 0.017 µM | 0.019 µM | – | Nc1ncnc2c1c(C#Cc1cccc(C(=O)NC3CC3)c1)cn2CC1CC1 [cmpd 99, 3-{[4-amino-7-(cyclopropylmethyl)-7H-pyrrolo[2,3-d]pyrimidin-5-yl]ethynyl}-N-cyclopropylbenzamide] |
| 6110 nM | 0.023 µM | 0.045 µM | – | CC(C)n1cc(C#Cc2cc(C(=O)NC3CC3)ccc2C#N)c2c(N)ncnc21 [cmpd 108, 3-{[4-amino-7-(propan-2-yl)-7H-pyrrolo[2,3-d]pyrimidin-5-yl]ethynyl}-4-cyano-N-cyclopropylbenzamide] |
| 5880 nM | 0.227 µM | 0.279 µM | – | CC(C)n1cc(C#Cc2cccc(C(N)=O)c2)c2c(N)ncnc21 [cmpd 110, 3-{[4-amino-7-(propan-2-yl)-7H-pyrrolo[2,3-d]pyrimidin-5-yl]ethynyl}benzamide] |
